Source: paper PMC6560211, “ApoAI-derived peptide increases glucose tolerance and prevents formation of atherosclerosis in mice” (Diabetologia, 2019)
No end group written: not given here.

Test system: Akt and AMPK signalling
Assay: Tissue signalling by western blotting
Assay type: in vivo, mouse
Conditions: soleus muscle, heart muscle and adipose depots in lean mice; 12 mg/kg i.p., 2.5 h; n=4
Procedure: Soleus, heart and fat samples were collected from male C57BL/6NTac mice (Taconic, Ejby, Denmark) after 12 h fasting at 9 weeks of age. The effect of RG54 on Akt and AMPK signalling in vivo was then measured by western blot using the following antibodies (all sourced from Cell Signaling Technology/Bionordika, Stockholm, Sweden): pAKT (#4060, 1:2000), Akt (#4691, 1:1000), pAMPK (#2535, 1:1000), AMPK (#2603, 1:1000) and GAPDH (#D16H11, 1:1000). All antibodies were diluted in Tris-buffered saline (154 mmol/l NaCl) with Tween-20 containing 1% BSA and were validated by the manufacturer. See ESM Methods for more details.
In vitro: glucose uptake measurements
C2C12 […] myoblasts (ATCC #CRL-1772) were grown in DMEM (ATCC) supplemented with 10% FBS (Sigma) and 1% Penicillin, Streptomycin and Amphotericin B (Invitrogen) and maintained at 37°C and 5% CO2. Differentiation to myotubes was achieved by switching from growth media to 2% FBS DMEM for 7 days. […]
No statistical methods were used to predetermine sample sizes, but sample sizes are similar to those reported in the field. […] Group allocation was blinded for all mouse work when possible (such as collection of blood or tissues, sample quantification and analysis, and atherosclerosis scoring). […]
protein concentrations were analysed with Bradford protein assay. […]

Substance: Ac-AEYHAKATEHLSTLSEKAKPALEDLRQGLLPVLESFKVSFLSALEEYTKKLNTQ [RG54]
- AMPK and Akt phosphorylation: minor to no changes
